Several values for one entry are separate records, joined by “and”; a condition that tells them apart may be missing. Equal entries are not always repeated. Entries after “also recorded” stand apart in the source; their conditions may differ.
Columns and labels:
[1] = tested on: NIH/3T3 cells; experiment: Cell cytotoxicity, trypan blue staining; assay type: cell-based; design: cell viability: dose or concentration left out as unconfirmed
Protocol: (§1) The cell doubling time for NIH/3T3 cells is around 16 hours and one can see over twice as many cells at 24 hours than at 8 hours as one would expect, implying greater than 99% cell viability. B. Compound 1 is taken up at a constant rate for up to 8 hours.
(§2) Compound 1 was effectively taken up by NIH/3T3 cells at a constant rate for the first 8 hours of treatment. The maximal intracellular concentration of Compound 1 of approximately 10^−14 mol Gd/cell is achieved at 8 hours and maintained up to 24 hours (FIG. 6 B). NIH/3T3 cells were seeded at 10^5 cells per well in 24-well tissue culture plates with Dulbecco's modified Eagle's medium (DMEM) containing 10% bovine calf serum and incubated overnight in a 5% CO2 incubator at 37° C. The media was then changed and Compound 1 added at a concentration of 500 μM. After 2, 4, 8, and 24 hours, cells were washed three times with 1×PBS and exposed to 250 μL of 0.25% trypsin and harvested. Cells were diluted with an equal volume of 0.4% trypan blue and counted on a hemacytometer. For cellular uptake of Compound 1 into cells, cells were incubated with concentrated nitric acid at 70° C. for 3 hours. The dissolved cells were diluted into a 5 ml, solution with 3% nitric acid and 5 ppb of an indium internal standard. The concentration of Gd(III) was then determined using ICP-MS (induction coupled plasma mass spectrometry).

[2] = Relaxivity measurements in the absence and presence of ZnCl2; assay type: physicochemical
Protocol: (§3) Left: Relaxivity of Compound 1 in the presence of XCl2, where X=Zn, Ca, and Mg. All solutions were made in 100 mM KCl/100 mM HEPES at ph=7.4. Right: Relaxivity of Zn-1, 3:1 (Zn:Gd), following titration of EDTA.
(§4) To test the binding ability of the acetate ligands to Zn(II), relaxivity measurements of 1 were measured in the absence and presence of ZnCl2. The relaxitivity of 1 in HEPES buffer without zinc was 2.34 mM^−1 s^−1, as is typical for small molecule contrast agents for which q=0 (8). […] As ZnCl2 was added, the relaxivity increased to 5.3 mM^−1 s^−1 indicative of a q=1 complex (See FIG. 3, left). Similar studies were conducted using MgCl2 and CaCl2 to test for selectivity of the ligand for zinc over other dications known to have higher cellular concentrations and which have similar binding affinities for carboxylic acids. […] A competitive binding assay gave a dissociation constant of 2.38×10^−4 M for the Gd(III)-Zn(II) complex.
After 1 was left to equilibrate at 37° C. for 3 days with an excess of zinc, a relaxivity of 9.2 mM^−1 s^−1 was measured, indicating the species has a value of q=2. This measurement corresponds well to a structure proposed by embodiments of the present invention in which the pendant ligands have left the gadolinium for the zinc, leaving two open coordination sites for water to bind. […] Although an understanding of the mechanism is not necessary to practice the present invention and the present invention is not limited to any particular mechanism of action, in some embodiments, this is due to sequestration of Zn(II) by EDTA which leaves the carboxylic acids available to bind to Gd(III) and close the coordination sites (See FIG. 3, right). Adding excess EDTA had no effect on the relaxivity, providing that the Gd(III) ions are not sequestered by EDTA as expected given the high binding constant (˜10^16) for Gd-EDTA for which q=1.
Proton relaxivity measurements on Compound 1 were also performed while titrating with increasing amounts of Zn(II) up to 1:1.4 (Gd: Zn) equivalents. […] The observed linear dependence also rules out the possibility of a 2:1 (Gd:Zn) complex formation.

[3] = Relaxivity measurements with MgCl2; assay type: physicochemical; details: MgCl2, even at 3-fold excess of the dication
Protocol: as §3, §4

[4] = T1-weighted phantom MR images with Ca(II); details: 4.7 T magnet; 1 mM Compound 1 in HEPES, 1 mM CaCl2
Protocol: (§5) A. Compound 1 selectivity. Images of a 1 mM solution of Compound 1 in HEPES buffer. (A) HEPES buffer only; (B) Compound 1; (C) Compound 1 with 1 mM ZnCl2; (D) Compound 1 with 1 mM MgCl2; (E) Compound 1 with 1 mM CaCl2. B. Compound 1 sensitivity. Images of a 1 mM solution of Compound 1 in HEPES buffer with varying zinc concentrations. (A) 0 μM Zn; (B) 50 μM Zn; (C) 100 μM Zn; (D) 500 μM Zn; (E) 1 mM Zn. (TR=100.0 ms, TE=14.3 ms, FOV=2.5/2.0 cm, data matrix=256×256. TR=repetition time; TE=echo time; FOV=field of view).
(§6) To evaluate the effectiveness of Compound 1 as an in vivo probe, the stability of Zn-Compound 1 was investigated. Using the commercially available fluorophore FluoZinTM-1 (Invitrogen), the binding constant of zinc can be determined by a competitive assay. Since the Zn(II)-binding regions of the dye and Compound 1 are identical, similar binding constants are to be expected. […] To confirm there was a measurable difference between zinc concentrations, T1 was measured on these same samples on a 14.1 T magnet and on a 1.4 T magnet.

[5] = Stability in 0.1 M phosphate buffer (relaxivity, ICP of supernatant); assay type: physicochemical
Protocol: Compound 1 was monitored for 24 hours in a 0.1 M phosphate buffer to determine its stability in solution. Due to the low solubility of GdPO4 (Ksp=10^−22.26 mol^2/L^2) any dissociation of gadolinium from Compound 1 will precipitate, causing a subsequent decrease in relaxivity which was not seen. A more accurate measurement of the amount of gadolinium dissociation can be made from centrifuging the samples and collecting aliquots of the supernatant for evaluation of gadolinium concentration via ICP.

[6] = T1-weighted phantom MR images with Mg(II); details: 4.7 T magnet; 1 mM Compound 1 in HEPES, 1 mM MgCl2
Protocol: as §5, §6

[7] = Competitive binding assay with fluorophore FluoZin-1; details: competitive assay against FluoZin-1; read-out: dissociation constant (Kd) of the Gd(III)-Zn(II) complex
Protocol: as §4, §6

[8] = tested on: NIH/3T3 cells; experiment: Cellular uptake, Gd(III) by ICP-MS; assay type: cell-based; details: 500 μM
Protocol: as §1, §2

[9] = Relaxivity measurements with CaCl2; assay type: physicochemical; details: CaCl2, even at 3-fold excess of the dication
Protocol: as §3, §4

[10] = T1-weighted phantom MR images with Zn(II)
Protocol: as §5, §6

[11] = Testing of further agents for Zn(II) detection/activation (method not described)
Text: [drawing 1] wherein R═(CH2)n(n=1 or 2).

For `Cc1cccc(OCCCN2CCN(CC(=O)[O-])CCN(CC(=O)[O-])CCN(CC(=O)[O-])CC2)c1N(CC(=O)[O-])CC(=O)[O-].[Gd+3]` [Compound 1], which cell death ([1]; 0.5 mM, up to 24 hours, trypan blue staining) is on record?
The cell death was “no observable cell death”.

And the cell viability ([1]; 24 hours)?
Its cell viability is “greater than 99%”.

What about the cell proliferation ([1]; incubation with Compound 1 up to 24 hours) of the same molecule?
Its cell proliferation is “Normal proliferation; also recorded: proliferated exponentially at the expected rate”.

And the relaxivity ([2]; HEPES buffer without zinc)?
Its relaxivity is 2.34 mM⁻¹ s⁻¹.

And the relaxivity ([2]; HEPES buffer, ZnCl2 added)?
The relaxivity was 5.3 mM⁻¹ s⁻¹.

What about the relaxivity ([2]; equilibrated at 37° C. for 3 days with an excess of zinc) of the same molecule?
Its relaxivity is 9.2 mM⁻¹ s⁻¹.

What about the increase in relaxivity ([2]; in the presence of Zn(II)) of the same molecule?
The increase in relaxivity was greater than 100%.

And the “change in relaxivity values” [3]?
The value was “no significant change”.

What about the “MR image difference with Ca(II)” value [4] of the same molecule?
Its value is “no discernible difference”.

And the “decrease in relaxivity (Gd dissociation/precipitation)” value ([5]; 0.1 M phosphate buffer, 24 hours)?
The value was “not seen”.

What about the “change in [Gd] of supernatant (ICP)” value ([5]; 0.1 M phosphate buffer, time-points up to 24 hours) of the same molecule?
The value was “no significant change”.

And the “dissociation constant of the gadolinium complex” value ([5]; suggested from phosphate buffer stability)?
Its value is “on the order of that seen for Gd-DO3A”.

And the “MR image difference with Mg(II)” value [6]?
The value was “no discernible difference”.

What about the Kd [7] of the same molecule?
Its Kd is 238 µM and 240 µM.

And the uptake rate ([8]; first 8 hours of treatment)?
The uptake rate was “constant rate”.

And the maximal intracellular concentration ([8]; achieved at 8 hours and maintained up to 24 hours)?
The maximal intracellular concentration was “approximately 10^−14 mol Gd/cell”.

And the “change in relaxivity values” [9]?
Its value is “no significant change”.

What about the “MR image intensity in the presence of Zn(II)” value ([10]; 4.7 T magnet, 1 mM Compound 1 in HEPES, 1 mM ZnCl2) of the same molecule?
The value was “increase in intensity”.

And the “levels of Zn(II) that can be detected” value ([10]; in vitro MR images)?
The value was “hundreds of micromolar”.

What about the “visualization of difference between 100 μM and 500 μM zinc” value ([10]; phantom images, 1 mM Compound 1, varying zinc concentrations) of the same molecule?
Its value is “easily visualize the difference”.

For `Cc1cccc(OCCN2CCN(CC(=O)[O-])CCN(CC(=O)[O-])CCN(CC(=O)[O-])CC2)c1N(CC(=O)[O-])CC(=O)[O-].[Gd+3]` [second agent], which “activation towards Zn(II)” value [11] is on record?
The value was “little activation”.

Reference: US7906105B1, “Zinc-activated contrast agents” (Northwestern University, priority 2006, dated 2011)
